Assay results: ChEMBL document CHEMBL1156829 (Proc Natl Acad Sci U S A, 2008)
pEC50: −log10 of the molar value.

How the values were obtained:
[1] = system: Plasmodium falciparum; experiment: NOVARTIS: Inhibition of Plasmodium falciparum 3D7 (drug-susceptible) proliferation in erythrocyte-based infection assay; format: functional, organism-based; settings: Plasmodium falciparum, 3D7
[2] = system: Plasmodium falciparum; experiment: NOVARTIS: Inhibition of Plasmodium falciparum W2 (drug-resistant) proliferation in erythrocyte-based infection assay; format: functional, organism-based; settings: Plasmodium falciparum, W2; read-out: EC50
[3] = NOVARTIS: Cytotoxicity against human hepatocellular carcinoma cell line (Huh7); format: toxicity, cell-based, Huh-7; settings: Huh7 cells (hepatocellular carcinoma cell line)

Structure (SMILES): CCCCOc1ccc(N2C(N)=NC(N)=NC2(C)C)cc1
- pEC50 [1]: 6.81
- pEC50 [2]: < 5.90
- CC50 [3]: > 10000 nM

Structure (SMILES): Cc1ccccc1/C=C1\SC(=Nc2ccccc2)NC1=O
- pEC50 [1]: 5.98
- pEC50 [2]: < 4.90
- CC50 [3]: > 100000 nM

Structure (SMILES): CCOC(=O)c1cccc(N2C(N)=NC(N)=NC2(C)C)c1
- pEC50 [1]: 6.83
- pEC50 [2]: < 5.90
- CC50 [3]: > 10000 nM

Structure (SMILES): O=C(Nc1ccc(-c2cc(-c3ccccc3)nc(-c3ccc(NC(=O)c4cccc([N+](=O)[O-])c4)cc3)n2)cc1)c1cccc([N+](=O)[O-])c1
- pEC50 [1]: 5.87
- pEC50 [2]: 5.91
- CC50 [3]: > 10000 nM

Structure (SMILES): CCOc1ccc(N2C(N)=NC(N)=NC2(C)C)cc1
- pEC50 [1]: 7.10
- pEC50 [2]: < 4.90
- CC50 [3]: > 100000 nM

Structure (SMILES): O=C(Nc1ccc(-c2nnc(-c3ccc(NC(=O)c4ccccc4[N+](=O)[O-])cc3)o2)cc1)c1ccccc1[N+](=O)[O-]
- pEC50 [1]: 6.39
- pEC50 [2]: < 4.90
- CC50 [3]: > 100000 nM

Structure (SMILES): CC1(C)N=C(N)N=C(N)N1c1ccc(I)cc1
- pEC50 [1]: 8.14
- pEC50 [2]: < 4.90
- CC50 [3]: > 100000 nM

Structure (SMILES): COc1ccc(N2C(N)=NC(N)=NC2(C)C)cc1
- pEC50 [1]: 7.86
- pEC50 [2]: < 5.90
- CC50 [3]: > 10000 nM

Structure (SMILES): CC1CCC(C(C)(C)Oc2ccc(NC(=O)c3ccccc3)cc2)CC1 (configuration not stated)
- pEC50 [1]: 5.40
- pEC50 [2]: 5.93
- CC50 [3]: 42800 nM

Structure (SMILES): CC1=C(C(=O)OC2CCCCC2)C(c2ccc(F)c(F)c2)C2=C(CCCC2=O)N1 (configuration not stated)
- pEC50 [1]: 5.21
- pEC50 [2]: 5.56
- CC50 [3]: > 100000 nM

Structure (SMILES): CCCCCCCSc1c(O)c2ccc(Cl)cc2[nH]c1=O
- pEC50 [1]: 6.91
- pEC50 [2]: 6.57
- CC50 [3]: > 10000 nM

Structure (SMILES): NCCC(=O)N1CC(c2ccccc2)c2ccccc2C1CN1CCCCC1 (configuration not stated)
- pEC50 [1]: 6.47
- pEC50 [2]: 6.64
- CC50 [3]: 8520 nM

Structure (SMILES): Cc1ccc(C(CCNc2ncnc3c2[nH]c2ccccc23)c2ccco2)cc1 (configuration not stated)
- pEC50 [1]: 6.13
- pEC50 [2]: 6.28
- CC50 [3]: 19400 nM

Structure (SMILES): CC1CC(=O)NN=C1c1ccc(NC(=O)c2ccccc2)cc1 (configuration not stated)
- pEC50 [1]: 6.52
- pEC50 [2]: 6.57
- CC50 [3]: > 10000 nM

Structure (SMILES): Cc1cccc(-c2nc3cc(NC(=O)c4ccc([N+](=O)[O-])o4)ccc3o2)c1
- pEC50 [1]: 5.76
- pEC50 [2]: < 4.90
- CC50 [3]: > 100000 nM

Structure (SMILES): Cc1ccc(CNC(=O)CSc2nc3ccsc3c(=O)n2CCCCCC(=O)NCCc2ccccc2)cc1
- pEC50 [1]: 5.35
- pEC50 [2]: 5.57
- CC50 [3]: > 100000 nM

Structure (SMILES): COc1ccc(C(=O)Nc2ccc3nsnc3c2)cc1OC
- pEC50 [1]: < 5.90
- pEC50 [2]: < 5.90
- CC50 [3]: > 10000 nM

Structure (SMILES): COc1ccc(-c2nc3cc(Cc4ccc5[nH]c(-c6ccc(OC)cc6)nc5c4)ccc3[nH]2)cc1
- pEC50 [1]: 6.63
- pEC50 [2]: 6.11
- CC50 [3]: 6220 nM

Structure (SMILES): O=C(CN1C(=O)C2C3CCC(C3)C2C1=O)N1CCCC(c2ncncc2-c2ccncc2)C1 (configuration not stated)
- pEC50 [1]: 6.61
- pEC50 [2]: < 5.90
- CC50 [3]: > 10000 nM

Structure (SMILES): C/C=C(\Cl)C1=CC(=O)[C@]23C[C@H]2[C@@]2(C)CO[C@@]1(O)[C@@]3(O)O2
- pEC50 [1]: 6.69
- pEC50 [2]: < 5.90
- CC50 [3]: > 10000 nM

Structure (SMILES): Cc1cc(CNC(=O)CC2C(=O)NCCN2Cc2ccccc2C(F)(F)F)nn1C (configuration not stated)
- pEC50 [1]: < 7.56
- pEC50 [2]: < 5.90
- CC50 [3]: > 10000 nM

Structure (SMILES): CN(C)c1ccc(N2C(N)=NC(N)=NC2(C)C)cc1
- pEC50 [1]: 7.73
- pEC50 [2]: < 5.90
- CC50 [3]: > 10000 nM

Structure (SMILES): COc1cc2c(cc1OC)C(CCCCCl)=NC(C)(C)C2
- pEC50 [1]: 6.46
- pEC50 [2]: < 4.90
- CC50 [3]: > 100000 nM

Structure (SMILES): O=C(C=Cc1ccccc1Cl)Nc1ccc(Oc2ccc3ccccc3c2Cl)c(Cl)c1
- pEC50 [1]: 5.99
- pEC50 [2]: < 4.90
- CC50 [3]: > 100000 nM

Structure (SMILES): CC1=C(C(=O)OC2CCCCC2)C(c2ccc(Cl)c(Cl)c2)C2=C(CCCC2=O)N1 (configuration not stated)
- pEC50 [1]: 6.13
- pEC50 [2]: < 4.90
- CC50 [3]: > 100000 nM

Structure (SMILES): COc1cccc(-c2nc(CS(=O)(=O)CC(=O)N3CC(C)CC(C)C3)c(C)o2)c1 (configuration not stated)
- pEC50 [1]: 6.87
- pEC50 [2]: < 5.90
- CC50 [3]: > 10000 nM

Structure (SMILES): CCCCCN(C(=O)c1ccc(C(C)(C)C)cc1)C(CC)c1nc2ccccc2c(=O)n1-c1ccccc1OC (configuration not stated)
- pEC50 [1]: < 6.93
- pEC50 [2]: < 5.90
- CC50 [3]: > 10000 nM

Structure (SMILES): CCOC(=O)c1c(NC(=O)CSc2nnc(CNC(=O)c3cccs3)n2-c2cccc(Cl)c2)sc2c1CCCC2
- pEC50 [1]: < 5.94
- pEC50 [2]: < 5.90
- CC50 [3]: > 10000 nM

Structure (SMILES): CC(C)N(CC(=O)Nc1cc(C(C)(C)C)nn1-c1ccc(Cl)cc1)C(=O)c1cccc2ccccc12
- pEC50 [1]: 5.92
- pEC50 [2]: < 5.91
- CC50 [3]: > 10000 nM

Structure (SMILES): O=C(O)c1nsnc1C(O)C(O)C(=O)O (configuration not stated)
- pEC50 [1]: < 5.85
- pEC50 [2]: < 5.91
- CC50 [3]: > 10000 nM

Structure (SMILES): Cc1nc(Cl)cc(N2CCc3c(nc(N4CC(C)OC(C)C4)[nH]c3=O)C2)n1 (configuration not stated)
- pEC50 [1]: 6.76
- pEC50 [2]: < 5.90
- CC50 [3]: > 10000 nM

Structure (SMILES): Oc1c2c(nc3cc(-c4ccccc4)nn13)CCCC2
- pEC50 [1]: 5.72
- pEC50 [2]: < 4.90
- CC50 [3]: > 100000 nM

Structure (SMILES): O=C(c1ccc([N+](=O)[O-])cc1)c1ccc(N2CCOCC2)c([N+](=O)[O-])c1
- pEC50 [1]: 5.38
- pEC50 [2]: 5.56
- CC50 [3]: > 100000 nM

Structure (SMILES): Cc1ccc(N2C(N)=NC(N)=NC2(C)C)c(C)c1
- pEC50 [1]: 6.98
- pEC50 [2]: < 4.90
- CC50 [3]: > 100000 nM

Structure (SMILES): O=C1C2C(C(=O)N1Cc1ccccc1)C1(c3ccccc3)C(=O)C2(c2ccccc2)C(c2ccccc2)=C1c1ccccc1 (configuration not stated)
- pEC50 [1]: 6.09
- pEC50 [2]: < 4.90
- CC50 [3]: > 100000 nM

Structure (SMILES): Cc1ccc(N2C(=O)C3C(C2=O)C2(c4ccccc4)C(=O)C3(c3ccccc3)C(c3ccccc3)=C2c2ccccc2)cc1[N+](=O)[O-] (configuration not stated)
- pEC50 [1]: 6.09
- pEC50 [2]: < 4.90
- CC50 [3]: > 100000 nM

Structure (SMILES): CC1=C2C(=O)c3ccccc3C2NC(=O)N1 (configuration not stated)
- pEC50 [1]: < 6.45
- pEC50 [2]: < 4.90
- CC50 [3]: > 100000 nM

Structure (SMILES): CC(C)[C@@H](CO)Nc1ccnc2c(-c3ccccc3F)cnn12
- pEC50 [1]: < 5.90
- pEC50 [2]: < 6.57
- CC50 [3]: > 10000 nM

Structure (SMILES): COC(=O)c1cn([C@H]2C[C@@H](C(=O)NCc3ccc(OC)cc3)N(Cc3ccsc3)C2)nn1
- pEC50 [1]: < 5.77
- pEC50 [2]: 6.70
- CC50 [3]: > 7380 nM

Structure (SMILES): Cc1cccc(-n2nc3c(c2NC(=O)c2ccc4c(c2)OCO4)CS(=O)(=O)C3)c1C
- pEC50 [1]: 6.91
- pEC50 [2]: < 5.90
- CC50 [3]: > 10000 nM

Structure (SMILES): Cc1oc2c(cc(NS(=O)(=O)c3ccc(F)cc3)c3ccccc32)c1C(=O)OCc1ccccc1
- pEC50 [1]: < 5.84
- pEC50 [2]: < 4.90
- CC50 [3]: > 100000 nM

Structure (SMILES): CCCc1ccc(OCc2nc(-c3ccc(NC(=O)c4cccs4)cc3)no2)cc1
- pEC50 [1]: 6.08
- pEC50 [2]: < 4.90
- CC50 [3]: > 100000 nM

Structure (SMILES): CN1CCCN(C(=O)C2CC23CCN(Cc2ccc(N(C)c4ccccc4)cc2)CC3)CC1 (configuration not stated)
- pEC50 [1]: 5.88
- pEC50 [2]: 5.59
- CC50 [3]: 20800 nM

Structure (SMILES): CC(C)(C)C(=O)Nc1ccc(C23CC4CC(CC(c5ccccc5)(C4)C2)C3)cc1
- pEC50 [1]: 6.15
- pEC50 [2]: < 4.90
- CC50 [3]: > 100000 nM

Structure (SMILES): O=C(Cc1cccs1)NC1CCN(CC(O)CN(Cc2ccccc2)S(=O)(=O)c2ccccc2)C1 (configuration not stated)
- pEC50 [1]: 6.74
- pEC50 [2]: < 5.90
- CC50 [3]: > 10000 nM

Structure (SMILES): Cc1ccc2c(c1)N=C(c1ccc([N+](=O)[O-])cc1)CO2
- pEC50 [1]: < 5.89
- pEC50 [2]: < 4.90
- CC50 [3]: > 100000 nM

Structure (SMILES): O=C(O)c1cc([N+](=O)[O-])ccc1Oc1cncc(Cl)c1
- pEC50 [1]: 7.48
- pEC50 [2]: < 5.90
- CC50 [3]: > 10000 nM

Structure (SMILES): Oc1ccc(-c2cncc(NCc3cccc(O)c3)c2)cc1
- pEC50 [1]: 6.20
- pEC50 [2]: 5.90
- CC50 [3]: > 10000 nM

Structure (SMILES): CCCCOc1ccc(C(=O)NCCOc2cccc(OC)c2)cc1
- pEC50 [1]: 6.54
- pEC50 [2]: < 4.90
- CC50 [3]: > 100000 nM
